Experimental data: patent US20170173039A1, “COMPOSITIONS AND METHODS TO TREAT ADDICTION” (YALE UNIVERSITY, priority 2014, published 2017)
Read-outs that look alike come from different tables or passages of the source.

How the values were obtained:
[1] = Effect of naltrexone on alcohol stimulation (BAES); type: in vivo, human; settings: calculated from Ray et al. (Arch Gen Psychiatry 2007)
Description: No human studies have examined perampanel in psychiatric/substance-using populations. We calculated an effect size for naltrexone based on Ray et al. (Arch Gen Psychiatry. 2007; 64(9):1069-77), for the effect of naltrexone on stimulation (BAES) and will extrapolate this effect to perampanel. Based on this calculated effect size (d) of 0.45 (e.g. a moderate effect size), we should be able to show a significant difference between perampanel and placebo groups using a two-sided, […] t-test, with alpha=0.05 and power (1-Beta) of 0.80 with n=21 subjects in each experimental group (total N=42). We will recruit and enter N=50 subjects, in order to complete at least 42.

[2] = system: AMPA receptor; settings: in vitro, rat hippocampal slices; cited from earlier work
[3] = in vivo; cited from earlier work
[4] = cited from earlier work
[5] = in vivo; cited from earlier work; remark: listed apart in the source
[6] = molecular target: CYP3A4 (Homo sapiens, UniProt P08684); settings: cited from earlier work
[7] = cited from earlier work; remark: listed apart in the source
[8] = system: AMPA receptor; settings: animal spinal neurons; cited from earlier work
[9] = cited from earlier work; remark: listed apart in the source

Chain of CYP3A4 (P08684 whole entry): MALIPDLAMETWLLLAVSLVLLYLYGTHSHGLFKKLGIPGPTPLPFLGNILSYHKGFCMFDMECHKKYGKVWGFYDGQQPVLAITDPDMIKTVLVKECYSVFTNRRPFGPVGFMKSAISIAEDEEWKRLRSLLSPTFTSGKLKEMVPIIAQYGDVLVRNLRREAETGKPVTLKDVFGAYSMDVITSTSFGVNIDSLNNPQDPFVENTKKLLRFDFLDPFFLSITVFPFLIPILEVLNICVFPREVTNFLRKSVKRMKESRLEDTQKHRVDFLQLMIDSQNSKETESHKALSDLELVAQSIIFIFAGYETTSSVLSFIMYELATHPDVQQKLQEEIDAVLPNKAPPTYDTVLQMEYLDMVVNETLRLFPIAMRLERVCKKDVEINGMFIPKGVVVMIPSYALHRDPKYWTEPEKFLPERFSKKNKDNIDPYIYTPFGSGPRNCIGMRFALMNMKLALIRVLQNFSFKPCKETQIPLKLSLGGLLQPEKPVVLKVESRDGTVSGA

SMILES | effect size (d) on stimulation (BAES) [1] | selectivity of action on the AMPA receptor [2] | bioavailability [3] | pharmacokinetic linearity [3] | medication related adverse events/side effects ([4]; chronic dosing in epilepsy trials) | tolerability ([4]; human subjects, doses of 8 mg or 12 mg daily) | blood-brain-barrier penetration [5] | metabolising enzyme [6] | elimination half-life T1/2 ([7]; healthy volunteers) | absorption in the gastrointestinal system ([7]; orally active) | time to peak plasma concentration (Tmax) ([7]; post-ingestion) | selectivity of action on the AMPA receptor [8] | maximum tolerated single oral dose ([9]; healthy human subjects, single oral dose) [mg] | medication related adverse events/side effects ([9]; human, in vivo)
O=C1CC[C@@]2(O)[C@H]3Cc4ccc(O)c5c4[C@@]2(CCN3CC2CC2)[C@H]1O5 [naltrexone] | 0.45 | – | – | – | – | – | – | – | – | – | – | – | – | –
N#Cc1ccccc1-c1cc(-c2ccccn2)cn(-c2ccccc2)c1=O [perampanel] | – | selective action | about 100% | linear pharmacokinetics | dizziness, somnolence, irritability, headache, fall, and ataxia | well tolerated | effectively penetrates the blood-brain-barrier | primarily metabolized by CYP3A4 | – | – | – | – | – | –
CC(=O)N1N=C(c2ccc(N)cc2)c2cc3c(cc2C[C@H]1C)OCO3 [talampanel] | – | – | – | – | – | – | good blood-brain-barrier penetration | – | approximately 4 hours | easily absorbed | approximately 2 hours | selective action | 100 | dizziness, sedation, and ataxia
